Reference: US5166163A, “3-(1H-indazol-3-yl)-4-pyridinamines” (Hoechst-Roussel Pharmaceuticals Incorporated, priority 1991, dated 1992)
Structures can show the parent of a compound that is named as a salt.

Tests used:
[1] = test system: phenyl-para-quinone writhing; test: phenyl-para-quinone writhing assay in mice (analgesia); assay type: in vivo; details: s.c.
Text: The compounds of the present invention are useful as analgesic agents. […] Exptl. Biol. Med., 95,729 (1957)].

[2] = test system: ear edema induced by topical application of TPA (phorbol 12-myristate acetate); test: TPA-Induced Ear Edema (TPAEE); assay type: in vivo, Female Swiss Webster mice; details: mice
Experimental: The purpose of this assay was to determine the ability of a topically-applied compound to prevent ear edema induced by topical application of TPA (phorbol 12-myristate acetate). Female Swiss Webster mice topically received TPA (10 μg/ear) on the right ear and vehicle on the left ear. The test compound (10 μg/ear) was applied to both ears. After five hours, the animals were sacrificed and an ear punch (4 mm) was taken from each ear. The difference in right and left ear punch weights for each animal was determined to assess activity. […] See Young, J. M. et al., J. Invest. Dermatol., 80 (1983), pp. 48-52.

## NN=C(c1cnccc1N)c1ccccc1F [(4-Amino-3-pyridinyl)-2-fluorophenylmethanone hydrazone dihydrochloride]
[1]; 20 mg/kg of body wt.
  % Inhibition of Writhing: 74%

## CCC(=O)O[C@](Cc1ccccc1)(c1ccccc1)[C@H](C)CN(C)C [Propoxyphene, reference compound]
[1]; 3.9 mg/kg of body wt., standard
  % Inhibition of Writhing: 50%

## CC(C)(C)C(=O)Nc1ccncc1C(=NN)c1ccccc1F [[4-(2,2-Dimethylpropionamido)-3-pyridinyl]-2-fluorophenylmethanonehydrazonemaleate]
[1]; 20 mg/kg of body wt.
  % Inhibition of Writhing: 60%

## CC(C)(C)C(=O)Nc1ccncc1-c1n[nH]c2ccccc12 [N-[3-(1H-Indazol-3-yl)-4-pyridinyl]-2,2-dimethylpropanamide]
[2]; 10 μg/ear, both ears, five hours, TPA 10 μg/ear on right ear
  TPAEE (difference in right and left ear punch weights): -31%

## C[C@]12CCC(=O)C=C1CC[C@@H]1[C@@H]2[C@@H](O)C[C@@]2(C)[C@H]1CC[C@]2(O)C(=O)CO [hydrocortisone, reference compound]
[2]; standard, TPA-induced ear edema
  ED50: 47 μg/ear
